Experimental findings from PMC8069214, “Synthesis, Biological Evaluation, and Molecular Modeling of Aza-Crown Ethers” (Molecules, 2021) are described below.

One may read the melting point as the temperature, or range, at which the solid turns liquid.

For data set [1], the system named is human neutrophils. Put plainly: Ca2+ mobilization assay, direct effect of compounds on [Ca2+]i. In kind it is cell-based. The note with it: Neutrophil; for Emax: % of the response induced by 5 nM fMLF, read-out: Efficacy (converted). An excerpt:
We screened 24 aza- and diaza-crown ethers with adamantyl, adamantylalkyl, aminomethylbenzoyl, and ε-aminocaproyl substituents for their Ca^2+ ionophore effects in human neutrophils. To monitor cytoplasmic Ca^2+ levels, we used the fluorescent Ca^2+ indicator Fluo-4, which is a dynamic single-wavelength fluorescent Ca^2+ indicator. Increases in fluorescence intensity (λex = 485 nm, λem = 538 nm) reflect the rise in cytoplasmic Ca^2+ concentrations ([Ca^2+]i; see Materials and Methods).
(§1) Changes in neutrophil intracellular Ca^2+ concentrations ([Ca^2+]i) were measured with a FlexStation 3 scanning fluorometer (Molecular Devices, Sunnyvale, CA, USA). Briefly, human neutrophils were suspended in HBSS^−, loaded with Fluo-4AM at a final concentration of 1.25 μg/mL, and incubated for 30 min in the dark at 37 °C. After dye loading, the cells were washed with HBSS^−, resuspended in HBSS^+, separated into aliquots, and loaded into the wells of flat-bottom, half-area well black microtiter plates (2 × 10^5 cells/well). To assess the direct effects of test compounds on Ca^2+ flux, the compounds were added to the wells (final concentration of DMSO was 1%), and changes in fluorescence were monitored (λex = 485 nm, λem = 538 nm) every 5 s for 240 s at room temperature after addition of the test compound. To evaluate inhibitory effects of the compounds on FPR1/FPR2-dependent Ca^2+ flux, the compounds were added to the wells (final concentration of DMSO was 1%) with cells (human neutrophils or FPR1/FPR2 HL60 cells). The samples were preincubated for 10 min, followed by addition of 5 nM fMLF (for human neutrophils or FPR1-HL60 cells) or 5 nM WKYMVM (for FPR2-HL60 cells). The maximum change in fluorescence, expressed in arbitrary units over baseline, was used to determine the agonist response. Responses were normalized to the response induced by 5 nM fMLF or 5 nM WKYMVM, which were assigned as 100%. Curve fitting (at least five or six points) and calculation of median effective concentration values (EC50 or IC50) were performed by nonlinear regression analysis of the dose–response curves generated using Prism 7 (GraphPad Software, Inc., San Diego, CA, USA). Efficacy was determined by comparing individual responses activated by the test compounds to that induced by a positive control (5 nM fMLF), which was assigned a value of 100%.
(Calcium flux is commonly read through the fluorescence of an indicator in the cells.)

For data set [2], the system named is human neutrophils. Put plainly: Inhibition of fMLF-induced [Ca2+]i flux in human neutrophils. The format is cell-based. The note with it: Neutrophil, 10 min preincubation, 5 nM fMLF, N.A. = no activity at < 50 µM, read-out: FPR1/FPR2 Agonist-Induced Δ[Ca^2+]i Neutrophils IC50. Here is the method: (§2) Since these compounds elevated neutrophil [Ca^2+]i, and cytosolic Ca^2+ flux is a key component of neutrophil activation, we evaluated if they could alter neutrophil activation by FPR1 or FPR2 agonists. Neutrophils and FPR-transfected HL60 cells were preincubated for 10 min with crown ether compounds, and [Ca^2+]i flux was stimulated with either an FPR1 agonist (fMLF for human neutrophils and FPR1-HL60 cells) or an FPR2 agonist (WKYMVM for FPR2-HL60 cells).
as §1

Data set [3] deals with human neutrophils. The data set can be described thus: fMLF-induced neutrophil chemotaxis (ChemoTx chambers). In kind it is cell-based. The note with it: 1 h, 1 nM fMLF, 60 min migration. How it is done: Human neutrophils were suspended in HBSS^+ containing 2% (v/v) heat-inactivated fetal bovine serum (2 × 10^6 cells/mL), and effects of the compounds on fMLF-induced chemotaxis was analyzed in 96-well ChemoTx chemotaxis chambers (Neuroprobe, Gaithersburg, MD, USA). In brief, neutrophils were preincubated with the indicated concentrations of the test compounds or DMSO for 20 min at room temperature and added to the upper wells of the ChemoTx chemotaxis chambers. The lower wells were loaded with 30 µL of HBSS^+ containing 2% (v/v) fetal bovine serum and the indicated concentrations of test sample plus 1 nM fMLF, DMSO (negative control), or 1 nM fMLF as a positive control. Neutrophils were added to the upper wells and allowed to migrate through the 5.0-µm pore polycarbonate membrane filter for 60 min at 37 °C and 5% CO2. The number of migrated cells was determined by measuring ATP in lysates of transmigrated cells using a luminescence-based assay (CellTiter-Glo; Promega, Madison, WI, USA), and luminescence measurements were converted to absolute cell numbers by comparison of the values with standard curves obtained with known numbers of neutrophils. Curve fitting (at least eight to nine points) and calculation of median effective concentration values (IC50) were performed by nonlinear regression analysis of the dose-response curves generated using Prism 5.

The target of the next data set is T1, FPR2 (Homo sapiens, UniProt P25090).
T1 construct: expressed in transfected cells
T1 sequence (P25090 1-351): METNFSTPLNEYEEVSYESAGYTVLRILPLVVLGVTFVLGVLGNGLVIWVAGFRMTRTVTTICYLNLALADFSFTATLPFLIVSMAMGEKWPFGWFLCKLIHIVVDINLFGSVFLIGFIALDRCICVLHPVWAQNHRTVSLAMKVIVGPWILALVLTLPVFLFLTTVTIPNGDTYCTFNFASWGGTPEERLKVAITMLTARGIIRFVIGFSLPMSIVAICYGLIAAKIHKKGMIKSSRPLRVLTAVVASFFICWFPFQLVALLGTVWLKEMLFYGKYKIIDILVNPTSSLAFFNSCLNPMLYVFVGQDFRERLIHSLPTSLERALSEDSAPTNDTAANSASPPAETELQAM
Put plainly: Inhibition of WKYMVM-induced [Ca2+]i flux in FPR2-HL60 cells. The format is cell-based. The note with it: 10 min preincubation, 5 nM WKYMVM; N.A. = no activity at < 50 µM; read-out: FPR1/FPR2 Agonist-Induced Δ[Ca^2+]i FPR2-HL60 IC50. How it is done:
as §2
(§3) Human promyelocytic leukemia HL60 cells stably transfected with FPR1 (FPR1-HL60 cells) or FPR2 (FPR2-HL60 cells) (kind gifts from Dr. Marie-Josephe Rabiet, INSERM, Grenoble, France) were cultured in RPMI 1640 medium supplemented with 10% heat-inactivated fetal calf serum, 10 mM HEPES, 100 μg/mL streptomycin, 100 U/mL penicillin, and G418 (1 mg/mL). Although stable cell lines are cultured under G418 selection pressure, G418 may affect some assays, so it was removed in the last round of culture before assays were performed.
as §1

A further data set addresses T2, FPR1 (Homo sapiens, UniProt P21462).
T2 construct: expressed in transfected cells
T2 sequence (P21462 1-350): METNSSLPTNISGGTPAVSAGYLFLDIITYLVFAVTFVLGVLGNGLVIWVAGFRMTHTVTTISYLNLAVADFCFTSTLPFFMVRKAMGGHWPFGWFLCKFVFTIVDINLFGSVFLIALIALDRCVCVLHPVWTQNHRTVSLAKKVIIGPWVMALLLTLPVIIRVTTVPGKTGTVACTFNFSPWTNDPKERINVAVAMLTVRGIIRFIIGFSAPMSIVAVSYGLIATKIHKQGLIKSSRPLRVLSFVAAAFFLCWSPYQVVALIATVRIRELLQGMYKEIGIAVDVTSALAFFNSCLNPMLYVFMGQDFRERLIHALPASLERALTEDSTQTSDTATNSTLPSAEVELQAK
Put plainly: Inhibition of fMLF-induced [Ca2+]i flux in FPR1-HL60 cells. In kind it is cell-based. Conditions: 10 min preincubation, 5 nM fMLF; N.A. = no activity at < 50 µM; read-out: FPR1/FPR2 Agonist-Induced Δ[Ca^2+]i FPR1-HL60 IC50. Here is the method:
as §2, §3, §1

Data set [4] relates to human neutrophils. Put plainly: PMA-induced ROS production (L-012 chemiluminescence). The format is cell-based. Conditions: Neutrophil, 200 nM PMA, N.A. = no activity at < 50 µM. An excerpt: To evaluate if the crown ethers could also disrupt GPCR-independent functional activity, we evaluated the effects of these compounds on phorbol 12-myristate 13-acetate (PMA)-stimulated reactive oxygen species (ROS) production. […] A representative concentration-dependent response for the inhibition of PMA-stimulated neutrophil ROS production by compound 15 is shown in Figure 2B. Since ROS production in neutrophils also requires increased [Ca^2+]i, the results again confirm that the impact of these compounds on Ca^2+ flux kinetics can alter neutrophil function.
ROS production was determined by monitoring L-012-enhanced chemiluminescence, which represents a sensitive and reliable method for detecting superoxide anion (O2^−.) production. Human neutrophils were resuspended at 2 × 10^5 cells/mL in HBSS^+ supplemented with 40 µM L-012. Cells (100 µL) were aliquoted into wells of 96-well flat-bottomed microtiter plates containing test compounds at different concentrations (final DMSO concentration of 1%). Cells were preincubated for 10 min, and 200 nM PMA was added to each well to stimulate ROS production. Luminescence was monitored for 120 min (2-min intervals) at 37 °C using a Fluroscan Ascent FL microtiter plate reader (Thermo Electron, Waltham, MA, USA). The curve of light intensity (in relative luminescence units) was plotted against time, and the area under the curve was calculated as total luminescence. The compound concentration that inhibited ROS production by 50% of the PMA-induced response (positive control) was determined by graphing the percentage inhibition of ROS production versus the logarithm of concentration of test sample (IC50). Each curve was determined using five to seven concentrations.

[5] abbreviates: Homo sapiens, elevation of [Ca2+]i, Fluo-4, N.A. = no activity was found at concentration < 50 µM, read-out: EC50, effect on [Ca^2+]i flux in human neutrophils.
Setting [6] is: reciprocal of EC50 in human neutrophils, inactive compounds assigned zero, read-out: 1/[EC50] (converted).

Structures can show the parent of a compound that is named as a salt. Where two headings read alike, the source gives them in different places.

For the molecule `O=C(N1CCOCCN(C(=O)C23CC4CC(CC(C4)C2)C3)CCOCC1)C12CC3CC(CC(C3)C1)C2` [Compound 12, N,N’-bis[1-oxo-1-(1-adamantyl)methyl]-4,10-diaza-12-crown-4], in the data set on human neutrophils [1] (Homo sapiens), the Emax was 25 to 50%. In addition, the values for the EC50 with human neutrophils [1] (setting [5]) and in the data set with human neutrophils [1] (setting [6]) were 23.8 ± 7.6 µM and 23.8 µM, respectively. In addition, the IC50 in the data set with human neutrophils [2] is 4 ± 1.4 µM; with human neutrophils [3], 15.7 ± 4.2 µM.
`C1COCCN(CC23CC4CC(CC(C4)C2)C3)CCOCCN(CC23CC4CC(CC(C4)C2)C3)CCO1` [Compound 19, N,N’-bis[(1-adamantyl)methyl]-4,10-diaza-15-crown-5] came in with a melting point of 74 to 78 °C.
For `O=C(CC12CC3CC(CC(C3)C1)C2)N1CCOCCOc2ccccc2OCCOCC1` [Compound 11, N-[2-(1-adamantyl)acetyl]benzoaza-15-crown-5], the melting point was in the range of 141 to 142 °C. For the same molecule, in the data set on human neutrophils [1] (Homo sapiens), the Emax was 25 to 50%. Besides, the EC50 with human neutrophils [1] (setting [5]) was determined as 15.6 ± 4.4 µM. For the same molecule, the EC50 with human neutrophils [1] (setting [6]) is 15.6 µM. Besides, in the data set on human neutrophils [2], the IC50 amounted to 9.4 ± 0.6 µM. Besides, the IC50 on FPR2 turned out to be 29.1 ± 3.2 µM. The same molecule came in with an IC50 in the data set on human neutrophils [3] of 12.8 ± 5.3 µM.
With `O=C(CC12CC3CC(CC(C3)C1)C2)N1CCOCCOCCOCCOCC1` [Compound 8, N-[2-(1-adamantyl)acetyl]aza-15-crown-5], the EC50 in the data set with human neutrophils [1] (setting [5]) is 22.4 ± 4.3 µM; in the data set on human neutrophils [1] (setting [6]), 22.4 µM. The results for the IC50 with human neutrophils [2], at FPR1 and in the data set with human neutrophils [3] were 2.6 ± 0.4 µM, 37.1 ± 4.8 µM and 13.2 ± 3.8 µM, respectively.
In turn, `O=C(NC12CC3CC(CC(C3)C1)C2)C12CC3CC(CC(C3)C1)C2` [Compound 2, N-(1-adamantyl)adamantane-1-carboxamide] had a melting point of 255 to 257 °C.
The same measure, in the same setting: under `O=C(NC1CCCCC1)C12CC3CC(CC(C3)C1)C2` [Compound 4, N-cyclohexyladamantane-1-carboxamide] stands 174 to 176 °C; under `NCCCCCC(=O)N1CCOCCOCCN(C(=O)CCCCCN)CCOCC1` (as salt: hydrochloride) [Compound 22, N,N’-bis(6-aminohexanoyl)-4,10-diaza-15-crown-5 dihydrochloride], 114 to 118 °C.
`O=C(N1CCOCCOc2ccccc2OCCOCC1)C12CC3CC(CC(C3)C1)C2` [Compound 10, N-[1-Oxo-1-(1-adamantyl)methyl]benzoaza-15-crown-5] returned a melting point of 111 to 113 °C. Also, the Emax with human neutrophils [1] (Homo sapiens) was 25 to 50%. Besides, the EC50 in the data set on human neutrophils [1] (setting [5]) stood at 9.7 ± 2.6 µM. Also, in the data set with human neutrophils [1] (setting [6]), the EC50 was 9.7 µM. Further, in the data set with human neutrophils [2], the IC50 was 11.2 ± 2.7 µM. At FPR1, the IC50 came to 12.2 ± 1.9 µM. For the same molecule, the IC50 on FPR2 worked out at 36.4 ± 5.6 µM.
For `C1COCCN(CCC23CC4CC(CC(C4)C2)C3)CCOCCOCCN(CCC23CC4CC(CC(C4)C2)C3)CCO1` [Compound 21, N,N’-bis[2-(1-adamantyl)ethyl]-4,13-diaza-18-crown-6], the Emax with human neutrophils [1] (Homo sapiens) is 25 to 50%. In addition, the results for the EC50 with human neutrophils [1] (setting [5]) and with human neutrophils [1] (setting [6]) were 11.3 ± 3.1 µM and 11.3 µM, respectively. Besides, the IC50 stood at 10.2 ± 2.6 µM in the data set with human neutrophils [2], 9.6 ± 2.1 µM on FPR1, 28.2 ± 2.6 µM at FPR2 and 15.3 ± 1.8 µM with human neutrophils [4].
`O=C(CC12CC3CC(CC(C3)C1)C2)NC12CC3CC(CC(C3)C1)C2` [Compound 3, N,2-di(1-adamantyl)acetamide]: the melting point was 242 to 244 °C.
`O=C(N1CCOCCOCCN(C(=O)C23CC4CC(CC(C4)C2)C3)CCOCCOCC1)C12CC3CC(CC(C3)C1)C2` [Compound 16, N,N’-bis[1-oxo-1-(1-adamantyl)methyl]-4,13-diaza-18-crown-6]: the Emax with human neutrophils [1] (Homo sapiens) is 25 to 50%. Moreover, the EC50 in the data set on human neutrophils [1] (setting [5]) is 15.7 ± 3.8 µM; in the data set on human neutrophils [1] (setting [6]), 15.7 µM. For the same molecule, the IC50 is 3.4 ± 0.8 µM in the data set on human neutrophils [2], 7.3 ± 2.6 µM on FPR1, 30.7 ± 6.4 µM on FPR2 and 5.3 ± 0.4 µM in the data set on human neutrophils [3].
